How the values were obtained:
[1] = test system: Cyps; assay: Time dependent Cyp inhibition; format: in vitro ADME
[2] = test system: tumor growth; assay: Tumor growth with Compound BB alone or co-administered with 5-FU (FIG. 35); format: in vivo
[3] = test system: CD206 population in LLC tumors; assay: CD206 levels of macrophages in LLC tumors (FACS); format: in vivo, mouse; conditions: alone and in combination with cyclophosphamide
Protocol: Tumors were harvested on the last day or if the vehicles reached approx. 3000 mm^3. Tumors were cut in half. One half was cut in half again with ½ fixed in 10% NBF, and the other was frozen in OCT for frozen sections. The remaining half was processed to single cell suspension and evaluated by FACS using two panels. Antibodies used for staining for FACS were as follows. Staining with CD4 and CD8a: CD45-AF700 (BDB560510) at 1.25 ug/ml; […] Staining with CD11b and GR-1: CD45-AF700 (BDB560510) at 1.25 ug/ml; […] CD45-AF700 (BDB560510) at 1.25 ug/ml; […] Staining with MDSC panel: CD45-AF700 (BDB560510) at 1.25 ug/ml; […] Ly6C APC at 2.5 ug/ml; and Ly6G FITC at 2.5 ug/ml.

[4] = test system: MC38 tumors; assay: MC38 colon cancer model; format: in vivo, mouse
Protocol: In this model, a syngeneic colon cancer cell line is run subcutaneously. The experimental setup was as follows.
Female CR C57BL/6 mice were set up with 1×10^6 MC38 tumor cells in 0% Matrigel sc in flank. The cell injection volume was 0.05 ml per mouse. When tumors reached an average size of […], a pair match was made and treatment began. The tumor was measured by caliper biweekly.
The dosing volume was 5 mL/kg.
For all animals, blood was collected by terminal cardiac puncture under isoflurane anesthesia. The blood was processed for plasma. In addition, tumor samples were collected.
At study end, tumors were isolated, fixed in 10% neutral buffered formalin and embedded in paraffin for histologic analysis. Tumor sections from both vehicle and Compound BB monotherapy were cut for immunohistochemical analysis. T-cells within the tumor sections were identified utilizing a CD3-specific antibody via automated immunohistochemistry equipment (Ventana). Once stained, slides were digitalized via Aperio slide scanning equipment. Next, stained tumor sections were quantified via Definians software to assess the percentage of CD3 positive cells within each tumor. […] A trendline was added to the vehicle and Compound BB monotherapy graphs.

[5] = test system: bone marrow cells differentiating into MDSCs (VEGF, ARG1); assay: Myeloid Derived Suppressor Cell differentiation assay; format: cell-based; conditions: FIG. 24A, 24B
Protocol: A similar experiment was performed on bone marrow cells differentiating into MDSCs.

[6] = test system: differentiation of myeloid cells into M2 TAMs; assay: Murine M2 TAM differentiation (ARG1); format: cell-based, mouse; conditions: FIG. 22A, 22B
Description: High ARG1 (Arginase-1) levels indicate that myeloid cells are differentiating into M2 macrophages, so lower ARG1 levels relative to a control indicate interference with differentiation into M2 macrophages. Expression of Arginase-1 depletes the tumor microenvironment of arginine, thereby promoting T cell death and NK cell inhibition. Schmid et. al., Proceedings: AACR 103rd Annual Meeting 2012, Cancer Research: Apr. 15, 2012; Volume 72, Issue 8, Supplement 1. […] M2 TAMs promote cancer cell survival (FIG. 23).

[7] = test system: LLC tumor; assay: LLC tumor brei model with or without cyclophosphamide; format: in vivo, mouse; conditions: BB 15 mg/kg QD PO; cyclophosphamide 50 mg/kg EOD IP, FIG. 48
Protocol: In this experiment, treatment began when tumors reached approx. 150 mm^3—around day 12. Caliper and xenogen images were monitored. Treatment groups n=13-15/group. […] Samples for FACs analysis were collected on day 23 post implant. Using FACS, cells were assayed for the level of CD11b and Gr-1.

[8] = test system: GL-261 tumors; assay: GL-261 glioma model with or without temozolomide; format: in vivo, mouse; conditions: 15 mg/kg QD PO from the start of treatment, vs vehicle
Protocol: TMZ was dosed IP 1×/day for 7 days.
Animals: C57 Albino mice (male) from Jackson Labs, n=80. Parameters Evaluated:
In life: Mice were dosed QD with Compound BB. Temozolomide was dosed QD IP, for 7 days. Tumor measurements and bodyweights were taken 2×/week, but caliper and xenogen measurements.
End point analysis: Tumors were cut in half. One half was cut in half again with ½ fixed in 10% NBF the other was frozen in OCT for frozen sections. The remaining half was processed to single cell suspension and evaluated by FACS.
PD satellite group—8 mice from the TMZ treated mice and 8 mice from the vehicle treated mice were sacrificed on day 7 post treatment. Tumors were processed to single cell suspension and evaluated by FACS.

[9] = test system: LLC tumor; assay: Lewis Lung Carcinoma (LLC tumor brei) model; format: in vivo, mouse; conditions: FIG. 25A, 25B
Protocol: Compound BB was tested in the Lewis Lung Carcinoma model, which is known in the art and briefly described hereinabove.
LLC tumor brei model was prepared and injected subcutaneously into a mouse in the hind flank region. The tumor brei was prepared as follows. LL2-Luc tumor cells were grown in culture in DMEM+10% FBS. Cells were implanted @ 1×10^6 cells/100 uL SC in the flank of C57 Albino mice (male) When tumors reached 1000 mm3, tumors were harvested. Only the white, living tissue was harvested. Any material containing visable blood or necrotic area was isolated away from the tumor tissue. Tumor tissue was placed in a Dounce tissue homoginized with 5 mLs of warm DMEM (no FBS). About 1-2 grams of tumor tissue was collected, homogenized, pooled into 50 mL falcon tube, and cells were counted. Cells were spinned @ […], and FBS was pooled off Cells were resuspended to equal 1×10^7 cells/mL with sterile PBS. 100 uL of cells/mouse SC at the hind flank region were implanted. This process was repeated one more time before conducting brei tumor efficacy study.

[10] = test system: immune gene expression in KPC tumors; assay: RNA expression profiling (TLDA) of KPC pancreatic tumors; format: in vivo, mouse; conditions: 3 mg/kg, with or without PDL-1 antibody
Protocol: RNA expression profiling was performed for immuno-phenotyping with a Tagman low density array (TLDA).
For mouse tumors, snap frozen samples were powdered with a Genogrinder at liquid nitrogen temperatures and RNA was isolated with Trizol. Next, the sample was cleaned-up using Qiashredder, and then using a RNeasy kit.
CT values were used for analysis. For each sample Si and each gene, the following values were calculated: dCT(Si,gene)=CT(Si,gene)−CT(Si,ACTB) ddCT(Si,gene)=dCT(Si,gene)−median(dCT(vehicle treated samples,gene)) RQ(Si,gene)=2^(−ddCT(Si,gene))
This produced a matrix of RQ values: 48 genes (rows)×39 samples (cols).
The analysis used R package Non-negative Matrix Factorization (NMF) with rank=3 and the “lee” algorithm.

[11] = test system: spleen T cell proliferation; assay: Ex vivo T-cell proliferation assay with tumor-derived cells; format: cell-based, mouse

In the case of `C[C@H](NC(=O)c1c(N)nn2cccnc12)c1cc2cccc(C#Cc3cnn(C)c3)c2c(=O)n1-c1ccccc1` [Compound BB], the “Time dep Cyp Inhibition @ 10 uM” value [1] is reported as “Neg”, the tumor growth ([2]; Compound BB alone (FIG. 35)) is reported as “reduction in tumor growth” and the tumor growth ([2]; co-administration of Compound BB and 5-FU (FIG. 35)) is reported as “further reduction”. The “CD206 population in LLC tumors” value [3] was “decrease in the CD206 population”, the “Intratumoral CD3+ T cells” value ([4]; MC38 tumors vs vehicle, FIG. 30) was “significantly more intratumoral CD3+ T cells” and the “Tumor growth, MC38 colon cancer model” value ([4]; monotherapy, FIG. 29A) was “significantly inhibited tumor growth”. For the same compound, the “VEGF and ARG1 in MDSC differentiation assay” value [5] was “suppressed both VEGF (FIG. 24A) and ARG1 (FIG. 24B)”, the “M2 TAM differentiation (ARG1 levels)” value [6] was “inhibited M2 TAM differentiation much more effectively than PI3K-δ inhibitor” and the “Tumor growth, LLC tumor brei model” value [7] was “reduced tumor growth by about the same amount”. The “Tumor volume, GL-261 glioma model” value [8] was “significant reduction in tumor volume”, the “Tumor growth, Lewis Lung Carcinoma model” value [9] was “demonstrated single agent activity” and the “M2 macrophage markers VEGF and ARG-1 (RNA)” value [10] was “trended towards reduction”. For the same compound, the immune suppressive environment [11] was “reduces”.

Reference: patent US11541059B2, “Heterocyclic compounds and uses thereof” (Infinity Pharmaceuticals, Inc., priority 2014, dated 2023)
